This is an account of results in PMC6862662, “In Vitro Evaluation and Docking Studies of 5-oxo-5H-furo[3,2-g]chromene-6-carbaldehyde Derivatives as Potential Anti-Alzheimer’s Agents” (International Journal of Molecular Sciences, 2019).

In one data set the target is T1, β-secretase (BACE-1) (Homo sapiens, UniProt P56817).
T1 construct: purchased Pan Vera; host or cells: baculovirus-expressed
Nature of the data set: Kinetic studies against β-secretase (Lineweaver–Burk and Dixon plots). In kind it is biochemical. The procedure: Compound 2f was selected for the kinetic studies with substrate concentrations 150, 300 and 450 nM for β-secretase following procedure described in our previous investigation. The Lineweaver–Burk plot (plot of the inverse of velocity (1/v) against the inverse of the substrate concentration (1/[S])) was used to ascertain the mode of inhibition of this compound.

Data set [1] deals with breast cancer cell line MCF-7. Nature of the data set: MTT cytotoxicity assay, MCF-7. It is filed as cell-based. As to conditions: Homo sapiens, MCF7; MTT assay, 24 h, preliminary; read-out: IC50 against MCF-7 cancer cell line. Background: Formazan colour is commonly taken as a measure of viable cells.
Description: (§2) Briefly, the cells were seeded in 96-well plate at a density of 20 × 10^3 cells per well and then incubated at 37 °C in 5% CO2 to allow cell attachment. […] An equal volume of medium was used as the control treatment. After treatment for 24 h, 10 μL MTT (5 mg/mL) was added to each well and the plate was further incubated for 4 h later. The supernatant was removed and 100 μL of DMSO was added to each well to dissolve the resulting formazan crystals. The absorbance was read at 570 nm using the Varioskan flash microplate spectrophotometer reader. The percentages of cell viability were used to determine the IC50 values.
In data set [2] the target is T2, BChE (Homo sapiens, UniProt P06276).
T2 construct: purchased cloud-clone corp., purchased through BIOCOM Africa (Pty) Ltd. RPC348Hu0 2_100
T2 sequence (P06276 29-602): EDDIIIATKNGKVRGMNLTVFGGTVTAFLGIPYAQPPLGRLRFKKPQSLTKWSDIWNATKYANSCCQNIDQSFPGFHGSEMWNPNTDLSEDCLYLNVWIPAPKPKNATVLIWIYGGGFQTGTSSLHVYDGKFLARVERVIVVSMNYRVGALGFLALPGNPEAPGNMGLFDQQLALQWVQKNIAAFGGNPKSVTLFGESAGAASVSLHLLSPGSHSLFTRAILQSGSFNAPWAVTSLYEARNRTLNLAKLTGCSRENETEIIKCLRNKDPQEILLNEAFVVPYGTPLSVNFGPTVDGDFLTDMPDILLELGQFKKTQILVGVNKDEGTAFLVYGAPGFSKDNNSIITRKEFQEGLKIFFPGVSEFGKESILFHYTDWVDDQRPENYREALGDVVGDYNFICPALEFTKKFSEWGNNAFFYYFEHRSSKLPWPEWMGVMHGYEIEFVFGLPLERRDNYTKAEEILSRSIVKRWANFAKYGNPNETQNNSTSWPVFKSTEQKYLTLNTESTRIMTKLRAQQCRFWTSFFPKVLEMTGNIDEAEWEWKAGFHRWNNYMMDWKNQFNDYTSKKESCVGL
The data set is described as follows: Kinetic studies against BChE (Lineweaver–Burk and Dixon plots). In kind it is biochemical. How it is done: (§1) Compounds 2f, 2b, 2f, 3b, 3d and 3f were selected for the kinetic studies with substrate concentrations 0.1, 0.5, 2. 5 and 5 µM for ChEs following procedures described in our previous investigation. The Lineweaver–Burk plots (plots of the inverse of velocity (1/v) against the inverse of the substrate concentration (1/[S])) were used to ascertain the mode of inhibition of these compounds.

A short description of data set [3]: DPPH radical scavenging activity assay. The settings on record: triplicate, preliminary. The procedure: DPPH radical scavenging activity of compounds 2b, 2f, 3b, 3d and 3f was evaluated following the literature method. Ascorbic acid (Sigma Aldrich, Saint Louis, Missouri, USA) was used as a positive control. The test compounds and controls at various concentrations ranging from (0 µM to 40 µM) in DMSO were mixed with a solution of DPPH (0.20 mM) in methanol. The mixtures were incubated in the dark for 45 min and the absorbances were recorded at 512 nm using Varioskan flash microplate spectrophotometer reader. All tests and analyses were run in triplicate and averaged. The inhibition was calculated in terms of percentage using the formula below:(5) DPPH radical scavenged (%)=AbC−AbS/AbC×100, where AbC is absorbance of control and AbS the absorbance of the test sample.
In general terms: Loss of DPPH colour is used to gauge radical scavenging.

For data set [4], the system named is lipoxygenase-15 (Soybean LOX-15). It is filed as biochemical. As to conditions: ratio not defined in print; matches IC50 LOX-15/LOX-5.
Description: Stock solutions (200 µM) of tested samples were prepared in DMSO. The stock solutions were further diluted with 50 mM Tris buffer of pH 7.7 to obtain concentrations of 0.01, 0.1, 1, 10 and 100 µM. The cells of a 96-well plate where distributed as follows: two wells taken as blanks (100 µL 50 mM Tris buffer pH 7.7), two wells taken as positive controls (90 µL of 15-LO Standard and 10 µL of DMSO) and two wells as 100% initial activity wells (90 µL lipoxygenase enzyme solution and 10 µL tris buffer). […] The 96-well plate was then incubated for 5 min at room temperature. The reaction was initiated by the addition of 10 µL of the substrate (arachidonic acid) to each well containing the mixtures. After shaking the 96-well plate on a shaker for 5 min, 100 µL of the chromogen (solution of equal volume developing reagent 1 and 2) was added to each well to stop enzyme catalysis and develop the reaction. The plate was again shaken for 5 min and the absorbance read at 490 nm in a Varioskan flash microplate spectrophotometer reader. The inhibitory concentration was expressed as a percentage using the formula below. […]
ASample is the absorbance of the reaction mixture of the test sample, ABlank sample is the absorbance of the reaction mixture containing all reagents except enzyme and AInitial activity is the absorbance of 100% initial activity.
Data set [5] concerns the target T3, human lipoxygenase-5 (LOX-5) (Homo sapiens, UniProt P09917).
T3 construct: purchased BioVision K980
T3 sequence (P09917 1-674): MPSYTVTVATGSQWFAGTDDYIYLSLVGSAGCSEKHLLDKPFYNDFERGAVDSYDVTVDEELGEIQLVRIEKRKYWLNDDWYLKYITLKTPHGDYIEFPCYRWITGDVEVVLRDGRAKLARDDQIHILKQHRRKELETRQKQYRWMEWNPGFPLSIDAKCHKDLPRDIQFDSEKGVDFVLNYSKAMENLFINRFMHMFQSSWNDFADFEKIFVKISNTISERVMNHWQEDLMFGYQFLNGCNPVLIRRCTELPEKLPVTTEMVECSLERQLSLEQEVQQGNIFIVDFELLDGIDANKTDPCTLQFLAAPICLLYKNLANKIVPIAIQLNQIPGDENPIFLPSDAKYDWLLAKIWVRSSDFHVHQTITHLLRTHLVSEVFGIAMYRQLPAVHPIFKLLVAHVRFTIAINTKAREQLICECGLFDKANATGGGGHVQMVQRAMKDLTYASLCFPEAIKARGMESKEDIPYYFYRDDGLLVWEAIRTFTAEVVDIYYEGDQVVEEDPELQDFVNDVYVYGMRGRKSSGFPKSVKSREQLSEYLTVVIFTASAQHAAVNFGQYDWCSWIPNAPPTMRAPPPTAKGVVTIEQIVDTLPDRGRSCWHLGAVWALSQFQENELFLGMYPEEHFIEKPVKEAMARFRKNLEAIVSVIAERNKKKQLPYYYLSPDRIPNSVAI
The data set is described as follows: Human LOX-5 inhibitory assay. It is filed as biochemical. As to conditions: human LOX-5, duplicate.
Description: The reagents were prepared according to the Lipoxygenase inhibitor screening kit (Item No. K980; BioVision, Milpitas Blvd, Milpitas, CA, USA) standard protocol. […] The cells of a 96-well plate where distributed as follows: two wells were taken as blanks (100 µL of assay buffer), two wells enzyme controls (90 µL of 15-LO Standard and 10 µL of tris buffer), two wells as 100% initial activity wells (90 µL and 10 µL DMSO) and three wells as enzyme control (40 µL). […] Forty µL of the reaction mixture (prepared by mixing thoroughly 36 µL of LOX assay buffer, 2 µL of LOX probe and 2 µL of 5-LOX enzyme) were added to each well and incubated for 10 min. at RT. The DMSO concentration in each reaction well was 1% to prevent enzyme structural deformation and therefore, reduced activity. […] The percentage inhibition (%) was calculated using the equation below. (4) % Inhibition=Control−Test/Control×100.

Another data set concerns the target T4, human recombinant BACE-1 (Homo sapiens, UniProt P56817).
T4 construct: purchased Pan Vera; host or cells: baculovirus-expressed
The data set is described as follows: β-secretase FRET inhibitory assay. The settings on record: triplicate. In kind it is biochemical.

For a further data set, the system named is Hek293-T cells. Nature of the data set: MTT cytotoxicity assay, Hek293-T. As to conditions: 24 h, till 50 μM. In kind it is cell-based.
The target in data set [6] is T5, AChE (Homo sapiens, UniProt P22303).
T5 construct: purchased BL, purchased through BIOCOM Africa (Pty) Ltd. 768104
T5 sequence (P22303 32-614): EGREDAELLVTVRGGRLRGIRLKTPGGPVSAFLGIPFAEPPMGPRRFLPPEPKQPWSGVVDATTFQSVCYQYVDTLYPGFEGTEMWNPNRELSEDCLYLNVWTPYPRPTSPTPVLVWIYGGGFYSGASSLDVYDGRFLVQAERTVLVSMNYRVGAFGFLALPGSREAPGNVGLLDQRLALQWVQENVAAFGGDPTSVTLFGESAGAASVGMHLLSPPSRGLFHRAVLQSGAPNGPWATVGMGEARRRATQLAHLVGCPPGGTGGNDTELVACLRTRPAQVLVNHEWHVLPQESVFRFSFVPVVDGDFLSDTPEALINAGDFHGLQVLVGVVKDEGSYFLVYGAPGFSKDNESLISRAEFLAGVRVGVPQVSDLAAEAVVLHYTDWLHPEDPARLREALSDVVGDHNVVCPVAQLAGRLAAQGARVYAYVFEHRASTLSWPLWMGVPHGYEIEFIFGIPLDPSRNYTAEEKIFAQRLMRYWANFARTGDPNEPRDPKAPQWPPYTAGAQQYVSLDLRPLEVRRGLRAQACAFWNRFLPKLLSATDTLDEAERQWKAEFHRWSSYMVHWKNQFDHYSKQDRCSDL
Nature of the data set: biochemical.

In data set [7] the target is T2, BChE. The data set is described as follows: biochemical.
Description: The mixtures were incubated for 15 min at RT. The reaction was initiated by adding of 10 µL of mixture solution of 5 mM 5,50-dithio-bis-nitrobenzoic acid (DTNB) in 50 mM tris buffer (pH 7.7) and 10 µL acetylthiocholine (ASCh; 5 mM) in 50 mM tris buffer, pH 7.7 into the wells containing the mixtures. The hydrolysis of ASCh was determined by monitoring the formation of the yellow 5-thio-2-nitrobenzoate anion resulting from reaction of DTNB with thiocholines (SCh).
The IC50 values were determined graphically from inhibition curves (inhibitor concentration and absorbance) using the graph pad prism.
In data set [8] the target is T5, AChE. The data set is described as follows: Kinetic studies against AChE (Lineweaver–Burk and Dixon plots). In kind it is biochemical. How it is done: as §1
[9] abbreviates: Lineweaver–Burk and Dixon plots.

Each structure is given as a SMILES string.

T1 sequence (P56817 46-501): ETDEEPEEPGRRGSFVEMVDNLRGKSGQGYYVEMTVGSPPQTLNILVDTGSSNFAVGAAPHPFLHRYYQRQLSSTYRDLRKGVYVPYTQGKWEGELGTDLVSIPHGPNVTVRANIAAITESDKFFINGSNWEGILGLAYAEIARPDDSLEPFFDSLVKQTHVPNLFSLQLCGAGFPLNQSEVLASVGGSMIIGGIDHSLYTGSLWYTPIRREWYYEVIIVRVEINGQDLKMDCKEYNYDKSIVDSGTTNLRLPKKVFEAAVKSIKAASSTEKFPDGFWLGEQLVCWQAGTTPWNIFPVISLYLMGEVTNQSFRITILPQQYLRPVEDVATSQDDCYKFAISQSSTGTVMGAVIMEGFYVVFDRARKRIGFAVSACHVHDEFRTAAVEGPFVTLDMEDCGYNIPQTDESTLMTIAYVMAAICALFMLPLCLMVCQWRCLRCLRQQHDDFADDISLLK
T4 sequence (P56817 46-501): as above
Description for Hek293-T cells: as §2

Usually Ki stands for a dissociation constant, usually derived from enzyme kinetics or from competition with a known ligand. A higher Ki goes with weaker binding. One may read the IC50 as the concentration needed to halve the response being measured. As to `COc1ccc(-c2cc3cc4c(=O)c(C=O)coc4cc3o2)cc1` [Compound 2f, 2-(4-Methoxyphenyl)-5-oxo-5H-furo[3,2-g]chromene-6-carbaldehyde], the figures for the Ki at β-secretase (BACE-1) (Dixon plot), at BChE [2] (Dixon plots) and on AChE [8] (Dixon plots) were 1.49 ± 0.01 µM, 3.9 ± 0.01 µM and 1.34 ± 0.02 µM, respectively. Besides, on β-secretase (BACE-1) (setting [9]), the “mode of inhibition against β-secretase” value is recorded as “mixed mode of inhibition”. Also, the IC50 worked out at 8.65 ± 0.03 µM in [1]; 18.1 ± 0.03 µM in data set [3]; 15.3 ± 0.01 µM in [5]; 15.4 ± 0.02 µM on human recombinant BACE-1; 9.4 ± 0.01 µM against AChE [6]; 5.1 ± 0.02 µM against BChE [7] (Ellman's method, triplicate). In addition, at BChE [2] (setting [9]), the “mode of inhibition against BChE” value was “non-competitive”. The “SI (LOX-15 vs LOX-5)” value in data set [4] was determined as 0.63. In the data set on Hek293-T cells, the “toxicity in Hek293-T cells” value is “did not show any major toxicity”. Also, the “SI BChE/AChE” value on AChE [6] (Selectivity index IC50 (BChE)/IC50 (AChE)) amounted to 0.54. Further, at BChE [7] (Selectivity index IC50 (AChE)/IC50 (BChE)), the “SI AChE/BChE” value came out at 1.85. For the same compound, at AChE [8] (setting [9]), the “mode of inhibition against AChE” value is reported as “competitive”. Further, at AChE [8] (Lineweaver–Burk plots, increasing inhibitor concentration), the “Vmax against AChE” value is 0.03 ± 0.018.
